Measured values published in patent US20030129222A1, “Liposomal imexon” (priority 2000, published 2003).
Like-named read-outs stand apart in the source and are kept apart here.

Key:
[1] = substituent constant, from Hansch and Leo or calculated using Clog P software; cited from earlier work
[2] = test system: 8226 myeloma, Sens (drug-sensitive); test: Cytotoxicity in tumor cell culture, SRB assay; assay type: cell-based, human; conditions: Homo sapiens
In short: (§1)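 N-substituted 2-cyanoaziridine-1-carboxamides were tested against a panel of human tumor lines and murine leukemia cells. L1210 Mdr is a murine multidrug-resistant, P-glycoprotein-positive leukemia line.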

A375 melan = test: Cytotoxicity in tumor cell culture, SRB assay; assay type: cell-based, human
In short: as §1

OVCAR3 ovarian = test: Cytotoxicity in tumor cell culture, SRB assay; assay type: cell-based, human
In short: as §1

[3] = test system: MCF7 breast, mitox (mitoxantrone-resistant); test: Cytotoxicity in tumor cell culture, SRB assay; assay type: cell-based, human; conditions: Homo sapiens
In short: as §1

[4] = test system: MCF7 breast, Dox (doxorubicin-resistant); test: Cytotoxicity in tumor cell culture, SRB assay; assay type: cell-based, human; conditions: Homo sapiens
In short: as §1

A-549 lung = test: Cytotoxicity in tumor cell culture, SRB assay; assay type: cell-based, human
In short: as §1

MCF7 breast, Sens = test: Cytotoxicity in tumor cell culture, SRB assay; assay type: cell-based, human
In short: as §1

leukocytes = conditions: in vivo; cited from earlier work
WiDr colon, res = test: Cytotoxicity in tumor cell culture, SRB assay; assay type: cell-based; conditions: Homo sapiens, WiDr, read-out: IC50 against human mouse tumors, WiDr colon res
In short: as §1

[5] = test system: 8226 myeloma, Res (imexon-resistant); test: Cytotoxicity in tumor cell culture, SRB assay; assay type: cell-based; conditions: Homo sapiens, read-out: IC50 against human mouse tumors, 8226 myeloma Res
In short: as §1

WiDr colon, Sens = test: Cytotoxicity in tumor cell culture, SRB assay; assay type: cell-based
In short: as §1

L1210 leukemia, Sens = test: Cytotoxicity in tumor cell culture, MTT assay; assay type: cell-based, murine; conditions: Mus musculus
In short: as §1

L1210 leukemia, Mdr = test: Cytotoxicity in tumor cell culture, MTT assay; assay type: cell-based, murine; conditions: Mus musculus
In short: as §1

PIE 2-3 sarcoma = conditions: cited from earlier work; for activity against PIE 2-3 sarcoma: 13: over a 10-fold dose range
[6] = test system: fresh human tumor-colony-forming cells; test: Human tumor cloning assay, eight tumor cell types together; assay type: cell-based
Experimental: (§2) Assays of antitumor agents against fresh human tumor-colony-forming cells provide results that predict better the responses obtained in treating cancer patients than those obtained with long established human cell lines (Salmon et al., 1981). For this reason, the N-phenyl derivative 13 was tested against a variety of fresh human tumors obtained at the Arizona Cancer Center using established methodology (Salmon and Hersh, 1994).

[7] = test system: Lung (cloned fresh human tumors); test: Human tumor cloning assay, [3H]thymine uptake by tumor-colony-forming cells; assay type: cell-based; conditions: No. tested 2
Experimental: as §2

[8] = test system: Stomach (cloned fresh human tumors); test: as above; assay type: cell-based; conditions: No. tested 1
Experimental: as §2

[9] = test system: Ovary (cloned fresh human tumors); test: as above; assay type: cell-based; conditions: No. tested 12
Experimental: as §2

[10] = test system: Sarcoma (cloned fresh human tumors); test: as above; assay type: cell-based; conditions: for no. sensitive: Sarcoma, No. tested 8
Experimental: as §2

[11] = test system: Other Gynecologic (cloned fresh human tumors); test: as above; assay type: cell-based; conditions: No. tested 4
Experimental: as §2

[12] = test system: Myeloma (cloned fresh human tumors); test: as above; assay type: cell-based; conditions: No. tested 3
Experimental: as §2

[13] = test system: Melanoma (cloned fresh human tumors); test: as above; assay type: cell-based; conditions: No. tested 10
Experimental: as §2

[14] = test system: Breast (cloned fresh human tumors); test: as above; assay type: cell-based; conditions: No. tested 4
Experimental: as §2

[15] = 13 2.0 μM (second column of 13)

Structure (SMILES): N#CC1CN1C(N)=O (centres unmarked) [Compound 1, 2-cyanoaziridine-1-carboxamide]
- π [1]: 0
- IC50 [2]: 288 µM
- IC50 ([2]; read-out: IC50 against human mouse tumors, 8226 myeloma Sens): 288 µM
- IC50 ([2]; read-out: Log(1/C) (converted)): 288 µM
- IC50 (A375 melan; Homo sapiens, A-375, read-out: IC50 against human mouse tumors, A375 melan): > 90 µM
- IC50 (OVCAR3 ovarian; Homo sapiens, OVCAR-3, read-out: IC50 against human mouse tumors, OVCAR3 ovarian): > 90 µM
- IC50 ([3]; MCF7, read-out: IC50 against human mouse tumors, MCF7 breast mitox): > 54 µM
- IC50 ([4]; MCF7, read-out: IC50 against human mouse tumors, MCF7 breast Dox): > 54 µM
- IC50 (A-549 lung; Homo sapiens, A549, read-out: IC50 against human mouse tumors, A-549 lung): > 280 µM
- IC50 (MCF7 breast, Sens; Homo sapiens, MCF7, read-out: IC50 against human mouse tumors, MCF7 breast Sens): > 54 µM
- effect on number of leukocytes (leukocytes): increased the number of leukocytes
- IC50 (WiDr colon, res): > 280 µM
- IC50 [5]: 432 µM
- IC50 (WiDr colon, Sens; Homo sapiens, WiDr, read-out: IC50 against human mouse tumors, WiDr colon Sens): > 280 µM
- IC50 (L1210 leukemia, Sens; L1210, read-out: IC50 against human mouse tumors, L1210 leukemia Sens): > 90 µM
- IC50 (L1210 leukemia, Mdr; L1210, read-out: IC50 against human mouse tumors, L1210 leukemia Mdr): > 90 µM
- activity against PIE 2-3 sarcoma (PIE 2-3 sarcoma): active
- toxicity (PIE 2-3 sarcoma; rat, in vivo): low toxicity

Structure (SMILES): N#CC1CN1C(=O)Nc1ccccc1 (centres unmarked) [Compound 13, 2-Cyanoaziridine-1-(N-phenyl)carboxamide]
- melting point: 88 to 90 °C
- π [1]: 2.00
- IC50 ([2]; read-out: Log(1/C) (converted)): 5.37 µM
- IC50 ([2]; against sensitive myeloma, values repeated from Table 3 (μM there), read-out: IC50): 5.3 µM
- IC50 ([2]; drug-sensitive line, read-out: IC50 against human mouse tumors, 8226 myeloma Sens): 5.3 µM
- IC50 (A375 melan; Homo sapiens, A-375; read-out: IC50 against human mouse tumors, A375 melan): 11 µM
- IC50 (OVCAR3 ovarian; Homo sapiens, OVCAR-3; read-out: IC50 against human mouse tumors, OVCAR3 ovarian): 6.8 µM
- IC50 ([3]; MCF7, mitoxantrone-resistant, read-out: IC50 against human mouse tumors, MCF7 breast mitox): 4.3 µM
- IC50 ([4]; MCF7, doxorubicin-resistant, read-out: IC50 against human mouse tumors, MCF7 breast Dox): 2.6 µM
- IC50 (A-549 lung; Homo sapiens, A549; read-out: IC50 against human mouse tumors, A-549 lung): 9 µM
- IC50 (MCF7 breast, Sens; Homo sapiens, MCF7; read-out: IC50 against human mouse tumors, MCF7 breast Sens): 2.9 µM
- effectiveness compared with imexon ([6]; 13 at 0.2 μM versus imexon at 1.0 μM): about as effective as imexon
- activity and potency compared with imexon in fresh human tumor cells ([6]; listed as N-phenyl derivative): more potent and equally effective to imexon
- IC50 (WiDr colon, res; multidrug-resistant): 12 µM
- IC50 ([5]; line made resistant to imexon): 8 µM
- IC50 (WiDr colon, Sens; Homo sapiens, WiDr; read-out: IC50 against human mouse tumors, WiDr colon Sens): 5 µM
- IC50 (L1210 leukemia, Sens; L1210, MTT assay, read-out: IC50 against human mouse tumors, L1210 leukemia Sens): 1.2 µM
- IC50 (L1210 leukemia, Mdr; L1210, MTT assay, multidrug-resistant, read-out: IC50 against human mouse tumors, L1210 leukemia Mdr): 11 µM
- no. sensitive ([7]; 13 0.2 μM): 0
- no. sensitive [7, 15]: 1
- no. sensitive ([7]; 13 2.0 μM (third column of 13)): 2
- no. sensitive ([8]; 13 0.2 μM): 1
- no. sensitive [8, 15]: 1
- no. sensitive ([8]; 13 2.0 μM (third column of 13)): 1
- no. sensitive ([9]; 13 0.2 μM): 3/10
- no. sensitive [9, 15]: 10/11
- no. sensitive ([9]; 13 2.0 μM (third column of 13)): 10
- activity against the sarcoma cells compared with imexon [10]: superior
- no. sensitive ([10]; 13 0.2 μM): 2/2
- no. sensitive [10, 15]: 4
- no. sensitive ([10]; 13 2.0 μM (third column of 13)): 5
- no. sensitive ([11]; 13 0.2 μM): 0
- no. sensitive [11, 15]: 2
- no. sensitive ([11]; 13 2.0 μM (third column of 13)): 3
- no. sensitive ([12]; 13 0.2 μM): 2/2
- no. sensitive [12, 15]: 2/2
- no. sensitive ([12]; 13 2.0 μM (third column of 13)): 2/2
- no. sensitive ([13]; 13 0.2 μM): 3/5
- no. sensitive [13, 15]: 8
- no. sensitive ([13]; 13 2.0 μM (third column of 13)): 10
- no. sensitive ([14]; 13 0.2 μM): 2
- no. sensitive [14, 15]: 2
- no. sensitive ([14]; 13 2.0 μM (third column of 13)): 3
- activity against PIE 2-3 sarcoma (PIE 2-3 sarcoma): active
